Source: patent US20190380986A1, “METHOD FOR PRODUCING EXTRACTS ENRICHED WITH SULFOXIDE-FREE ORGANOSULFUR COMPOUNDS, S-ALKENYL-LCYSTEINE AND S-ALKYL-LCYSTEINE, FROM PLANT RAW MATERIALS, AND USES THEREOF IN THE TREATMENT OF INFLAMMATORY DISEASES” (CANVAX BIOTECH, S.L, priority 2017, published 2019)
“Also recorded” adds a separate entry of the source. Where a name gives a salt, the structure may show the parent alone.

Key:
Format in all cases: in vivo, Dark Agouti rats
[1] = system: EAE (experimental autoimmune encephalomyelitis); assay: Clinical assessment of mobility in rats with EAE induced by MOG/FCA; conditions: for Change in the clinical assessment of mobility between day 35 and day 14: Example 3, NAC and SAC oral 50 mg/kg, treatment for 21 days, FIG. 3; for Change in the clinical assessment of mobility between days 35 and 14: FIG. 5
Procedure: Next, an experiment was designed to study the effect of SAC in rats with EAE (experimental autoimmune encephalomyelitis), a model of multiple sclerosis widely used for the development of new treatments for this neurodegenerative disease in humans. To evaluate the effect of this compound on the disease, the change in clinical parameters of mobility in each of the joints and in the tail (clinical score or clinical assessment) was measured, as well as the biomarkers of oxidative stress that explain the change in joint mobility in rats.
(§1) 70 Dark Agouti rats were used, 35 females and 35 males. Each group of 10 animals had 5 male rats housed in individual boxes and 5 females equally maintained in individual boxes. The following groups were included: i) Controls (untreated healthy animals); ii) vehicle (animals injected in the tail with 100 microlitres of Freund's complete adjuvant (FCA) but without the EAE-inducing peptide, the MOG peptide ([…]); iii) EAE (animals injected once into the tail with 150 μg of MOG (Sigma-Aldrich) in 100 microlitres of FCA); iv) EAE+dimethyl fumarate (EAE+DMF); v) EAE+N-acetyl cysteine (EAE+NAC); and vi) EAE+SAC. The treatments with NAC and SAC were administered to the animals orally using a probe and at a dose of 50 mg/kg of animal weight.
The mobility of the rats was evaluated using the method described by Pérez-Nievas (Pérez-Nievas, 2010) in which 0 is equivalent to not having any affected joint or tail; 1 equals paralysis in the tail; 2 equals partial mobility in the hind legs; 3 equals paralysis in the hind legs; 4 equals paralysis in the hind legs and partial mobility in the front legs and 5 equals a dying animal or that must be sacrificed for ethical reasons.
(§2) The statistical analysis was performed with the SPSS program (SPSS Ibérica, Madrid, Spain). The data are reported as mean±standard deviation (SD). […] To analyse the correlation between the biochemical parameters and the mobility of the animals at 35 days (Clinical assessment-35), Spearman's rho correlation coefficient was used. The level of statistical significance was established at p<0.05.
Next, an experiment was designed to study whether the effect of NAC and SAC were different depending on the dose administered in animal models of EAE. For this, the change in clinical parameters of mobility in each of the joints and the tail (clinical score or clinical assessment) was measured at 2 different doses of NAC and SAC; 18 mg/kg and 50 mg/kg administered orally for 5 days a week and following the same experimental design as Example 3.
(§3) 70 Dark Agouti rats, 35 females and 35 males, were used. Each group of 10 animals had 5 male rats housed in individual boxes and 5 females equally maintained in individual boxes. The following groups were included: i) Controls (untreated healthy animals); ii) vehicle (animals injected in the tail with 100 microlitres of Freund's complete adjuvant (FCA) but without the EAE-inducing peptide, the MOG peptide; iii) EAE (animals injected 1 time in the tail with 150 μg of MOG (Sigma-Aldrich) in 100 microlitres of FCA); iv) EAE+N-acetyl cysteine at 18 mg/kg (EAE+NAC18); v) EAE+N-acetyl cysteine at 50 mg/kg (EAE+NACSO); vi) EAE+SAC at 18 mg/kg (EAE+SAC18) and vii) EAE+SAC at 50 mg/kg (EAE+SAC50). The treatments with NAC and SAC were administered to the animals orally 5 days a week at a dose of 18 mg/kg or 50 mg/kg of the animal's weight.
The analysis of the mobility of the animals, their sacrifice, tissue management, determination of the total proteins and the statistical analysis, was carried out as previously described in Example 3.

[2] = system: GSH/GSSG ratio and lipoperoxides (LPO); assay: Biomarkers of oxidative stress (LPO, GSH/GSSG ratio) in brain and spinal cord of EAE rats; conditions: FIG. 4; for GSH/GSSG ratio in brain and spinal cord: Example 3, end of study (35 days), NAC and SAC oral 50 mg/kg, versus untreated EAE
Description: as §1
At the end of the study, the animals were decapitated at a controlled temperature using intraperitoneal anaesthesia with ketamine 75 mg/kg (Imalgene 100 mg/ml, Merial Laboratories, Barcelona, Spain). The brains, blood and spinal cord were extracted, weighed and homogenized with a mechanical homogenizer (Tempest Virtis), using 20 mM Tris at pH 7.4 as a buffer. The samples were centrifuged cold and the supernatants were immediately collected and stored at −80° C.
Total protein levels were quantified by the Bradford method and referenced to the original tissue weight. Oxidative stress parameters such as lipid peroxidation (LPO), total glutathione (tG) and reduced glutathione (GSH) were then measured in blood, brain and spinal cord using kits from Bioxytech SA (Oxis International, Portland, Oreg., USA): LPO-586, GSH-420 and GSH-400, respectively. Oxidised glutathione levels (GSSG) were calculated by subtracting reduced glutathione from total glutathione and the GSH/GSSG ratio was calculated.
as §2

[3] = system: LBP (lipopolysaccharide binding protein); assay: Soluble LBP levels (ELISA) in brain, spinal cord and blood of EAE rats; conditions: authors' observation in the background section
Procedure: as §3, with “weight. […]” for “weight.”
(§4) The measurement of lipopolysaccharide-binding soluble lipoprotein (LBP) levels was performed with the LBP soluble ELISA Kit (Enzo®, USA), in a sandwich ELISA system following the manufacturer's instructions. The levels of lipopolysaccharide (LPS) in blood and spinal cord were measured with the Pierce LAL Chromogenic endotoxin quantification kit supplied by Thermo Scientific (USA), following the manufacturer's instructions.® The data are presented as endotoxin units per milligram of tissue protein.

[4] = system: LPS (bacterial lipopolysaccharide); assay: LPS levels (LAL chromogenic endotoxin kit) in blood and spinal cord of EAE rats; conditions: Example 4, 50 mg/kg orally, SAC compared to NAC at the same concentration, FIG. 7
Procedure: as §3, with “weight. […]” for “weight.”
as §4

[5] = Example 4, 18 mg/kg orally 5 days a week
[6] = Example 4, 50 mg/kg orally 5 days a week

SMILES: COC(=O)/C=C/C(=O)OC [DMF, dimethyl fumarate]
- Change in the clinical assessment of mobility between day 35 and day 14 [1]: showed a reduction of the clinical assessment of mobility between day 35 and 14
- GSH/GSSG ratio in brain and spinal cord [2]: increased the GSH/GSSG ratio with respect to untreated animals (EAE); also recorded: induces an increase in the GSH/GSSG ratio

SMILES: CC(=O)N[C@@H](CS)C(=O)O [NAC, N-acetylcysteine]
- Change in the clinical assessment of mobility between day 35 and day 14 [1]: showed a reduction of the clinical assessment of mobility between day 35 and 14
- Change in the clinical assessment of mobility between days 35 and 14 [1, 5]: did not cause a reduction of the clinical assessment of mobility between days 35 and 14
- Change in the clinical assessment of mobility between days 35 and 14 [1, 6]: equally effective with respect to the group of animals with EAE without treatment
- Level of LBP after administration in animal models (pro-inflammatory effect) [3]: the level of LBP (lipopolysaccharide binding protein) increases
- GSH/GSSG ratio in brain and spinal cord [2]: increased the GSH/GSSG ratio with respect to untreated animals (EAE); also recorded: induces an increase in the GSH/GSSG ratio

SMILES: C=CCSC[C@H](N)C(=O)O [SAC, S-allyl-L-cysteine]
- Change in the clinical assessment of mobility between day 35 and day 14 [1]: showed a reduction of the clinical assessment of mobility between day 35 and 14
- Change in the clinical assessment of mobility between days 35 and 14 [1, 5]: caused a reduction in the clinical assessment of mobility equivalent to that caused by 50 mg/kg of NAC or SAC
- Change in the clinical assessment of mobility between days 35 and 14 [1, 6]: equally effective with respect to the group of animals with EAE without treatment
- GSH/GSSG ratio in brain and spinal cord [2]: increased the GSH/GSSG ratio with respect to untreated animals (EAE); also recorded: induces an increase in the GSH/GSSG ratio
- Oxidative damage induced by MOG/FCA (LPO, GSH/GSSG), SAC compared with NAC ([2]; Example 3, oral 50 mg/kg, 35 days): more effective than NAC in minimising oxidative damage induced by MOG/FCA; also recorded: corrects the oxidative damage induced by MOG/FCA to a higher percentage than the NAC
- Levels of LPS in blood and spinal cord [4]: significantly reduced the levels of LPS in blood and spinal cord compared to NAC
